In brackets after ≈: the same amount, converted by molar mass.
Tests used:
Assay type in all cases: physicochemical
[1] = Stability test, optical purity by chiral HPLC; settings: 40° C./75% RH (closed and open condition), 24 hours
Protocol: The optical purity was also measured by the following HPLC condition • Detector: UV at 240 nm • Column: […] IE (4.6×250 mm, 5 μm)/Daicel corp. • Column temperature: 40° C. • Mobile phase: n-hexane/ethanol/ethanolamine/acetic acid (65:35:0.5:0.2) • Flow rate: 1.0 mL/min • Injection: 5 μL • Sample temperature: 5° C. • Time span of measurement: 40 min Limit of Quantitation (LOQ): • Compound—RR,RS,SS: 0.05%
The optical purity was measured also with added 0.2% optical isomer.
The solid stability of the exemplary sample of the present invention and the free form obtained above was tested before and after the sample was stored at 40° C./75% RH (closed and open condition) for 24 hours.

Solubility test = settings: for solubility at 2 h: 37 °C, thermodynamic from solid; for Solubility: 2 hours
Protocol: About 15 mg of the exemplary sample of the present invention was added to 1 mL of each solvent and was swelled at 37° C. for 2 hours under light resistant condition. After centrifugation, each supernatant was filtered, and 0.7 mL of a mixture of water and acetonitrile (1:1) was added to 0.1 mL of the filtrate.
Following of mobile phase: Control the gradient by mixing the mobile phase A and B as directed in the following table below • Flow rate: 1.0 mL per minutes • Time span of measurement: For 12 minutes after injection

[2] = Hygroscopicity: moisture adsorption/desorption test; settings: relative humidity of 95%, 25° C.
Protocol: The moisture adsorption/desorption test was carried out according to the following conditions.
Approximately 10 to 15 mg of the sample was filled in a dedicated quartz holder, and the weight of each sample at each humidity was continuously measured and recorded under the following conditions.

Row | SMILES | change in the optical purity after storage [1] | solubility at 2 h (Solubility test; 50 mM acetate buffer, pH 4, aqueous buffer, Acetate buffer (50 mM, pH 4.0)) | solubility at 2 h (Solubility test; 0.5% HPMC, aqueous with cosolvent or surfactant or cyclodextrin) | solubility at 2 h (Solubility test; First fluid for dissolution test, pH 1.2, simulated gastric fluid, pH 1.2, 37° C.) | solubility at 2 h (Solubility test; Second fluid for dissolution test, pH 6.8, aqueous buffer, pH 6.8, 37° C.) | solubility at 2 h (Solubility test; water) | hygroscopicity: mass change in moisture adsorption/desorption test ([2]; listed as free form) | Solubility (Solubility test; First fluid for dissolution test, pH 1.2, 37° C.) | Solubility (Solubility test; water, 37° C.) | hygroscopicity: mass change in moisture adsorption/desorption test ([2]; listed as obtained product)
1 | Cc1ccc(F)c([C@@H](C)[C@H](NS(=O)(=O)c2ccc(Cl)cc2C(N)=O)c2n[nH]c(=O)o2)c1C [Comparative Example, 5-chloro-2-(N-((1S,2R)-2-(6-fluoro-2,3-dimethylphenyl)-1-(5-oxo-4,5-dihydro-1,3,4-oxadiazol-2-yl)propyl)sulfamoyl)benzamide] | No significant change | 250 µg/mL (≈ 518 µM) | 190 µg/mL (≈ 393 µM) | 230 µg/mL (≈ 476 µM) | 800 µg/mL (≈ 1660 µM) | 230 µg/mL (≈ 476 µM) | about 3.8% |  |  | 
2 | Cc1ccc(F)c([C@@H](C)[C@H](NS(=O)(=O)c2ccc(Cl)cc2C(N)=O)c2n[nH]c(=O)o2)c1C [Exemplary Sample, 5-chloro-2-(N-((1S,2R)-2-(6-fluoro-2,3-dimethylphenyl)-1-(5-oxo-4,5-dihydro-1,3,4-oxadiazol-2-yl)propyl)sulfamoyl)benzamide] | No significant change |  |  |  |  |  |  | 230 µg/mL (≈ 476 µM) | 230 µg/mL (≈ 476 µM) | about 0.1%
